In the METLIN SMRT retention time set (Domingo-Almenara et al. 2019):

Test: gradient 5% acetonitrile 3 min, to 50% in 2 min, to 85% in 15 min, held 3 min, 100 µL/min
Conditions: column: Zorbax Extend-C18 2.1 x 50 mm; eluents: water / acetonitrile, 0.1% formic acid
Method in brief: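 Pure standards were run in mixtures of ~100 molecules by HPLC coupled to a quadrupole time-of-flight mass spectrometer. The column was a Zorbax Extend-C18 (2.1 × 50 mm, 1.8 μm) at 100 μL/min, with water and acetonitrile each containing 0.1% formic acid, in positive and negative ionization mode. Dead and dwell volumes were 40 μL and 900 μL. Retention time was taken from computationally picked adduct peaks, each manually inspected, with data collected over 3 months.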

Row | RP-LC retention time [s] | Compound
1 | 869 | COc1ccc(F)cc1S(=O)(=O)Nc1ccc(CC(=O)NCC(F)(F)F)cc1
2 | 644 | CCn1nccc1C(=O)Nc1ccc2c(c1)CCC(=O)N2C
3 | 954 | CCOc1ccc(-n2ccn3cc(-c4ccc(Br)cc4)nc3c2=O)cc1
4 | 753 | CC1(C)CC2(CCO1)OC(=O)CC2C(=O)Nc1ccccc1Cl (stereo unspecified)
5 | 1140 | CCOc1cccc(-c2noc(Cn3ncn4nc(-c5cccs5)cc4c3=O)n2)c1
6 | 578 | Cc1ncc2c(SCC(=O)Nc3ccc(Br)cc3)ncnc2n1
7 | 1170 | O=C(c1ccc(C(F)(F)F)cc1)N1CCc2nc(-c3ccc(Cl)cc3)ncc2C1
8 | 548 | CC(=O)N1CCN(c2nc3c(s2)CC(C(=O)N2CCCCC2)CC3)CC1 (stereo unspecified)
9 | 602 | CN1CCN(CC(=O)N2CCNC(=O)C2CC(=O)Nc2cccc(C(F)(F)F)c2)CC1 (stereo unspecified)
10 | 955 | Cc1nc(N2CCOCC2)c2c(C(=O)Nc3cccc(C(F)(F)F)c3)c(C)oc2n1
11 | 696 | O=C(c1cc(S(=O)(=O)N2CCCC(C(=O)N3CCOCC3)C2)c[nH]1)N1CCCCCC1 (stereo unspecified)
12 | 688 | CC(=O)Nc1ccc(-n2cnc(C(=O)N3CCN(c4ccc(F)cc4)CC3)c2)nc1
13 | 634 | CCN1CCN(CCCNc2ccc(-c3nc(-c4cccc(F)c4)no3)cn2)CC1
14 | 759 | O=C(Nc1nc2c(s1)CCCC2C(=O)N1CCOCC1)c1ccc(Cl)cc1 (stereo unspecified)
15 | 727 | CCc1csc(-c2cn(CC(=O)Nc3ccc(OC)c(Cl)c3)cn2)n1
16 | 981 | Cc1cccc(Nc2c(-c3ccccc3)nc3cnccn23)c1C
17 | 1190 | O=c1cc(N2CCOCC2)oc2c(-c3cccc4c3sc3ccccc34)cccc12

Row | RP-LC retention time [s] | Compound
18 | 590 | CCCn1ccc2oc(C)c(C(=O)N3CCC(N4CCCCC4)CC3)c2c1=O
19 | 772 | CC(=O)c1cccc(C(=O)N2CCC3(CC2)N=C(c2ccc(C)cc2)NO3)c1
20 | 632 | CCC1CN2C=Nc3oc(C)c(C(=O)Nc4ccc5c(c4)OCO5)c3C2=N1 (stereo unspecified)
21 | 678 | N#Cc1ccc(CN2CC(n3cc(COc4ccc(F)cc4)nn3)C2)cc1
22 | 609 | COCC(O)Cn1ccnc1[N+](=O)[O-] (stereo unspecified)
23 | 638 | CCN1C(=O)c2cccnc2Sc2cc(CNC(=O)C3CCN(C(C)=O)CC3)ccc21
24 | 598 | COc1ccccc1CN[C@@H]1CCCN[C@@H]1c1ccccc1
25 | 681 | O=C(Nc1ccc(F)cc1F)N1CCC(N2CCN(Cc3ccccc3)C(=O)C2=O)CC1
26 | 816 | CN1C(=O)c2cc(C(=O)NCCc3ccccc3Cl)nn2CC1(C)C(=O)NCc1ccccc1 (stereo unspecified)
27 | 790 | O=C(NCc1ccccc1Cl)C1CCCN(S(=O)(=O)c2c[nH]c(C(=O)N3CCCC3)c2)C1 (stereo unspecified)
28 | 850 | CCNC(=O)c1sc(-c2ccc(C)cc2)nc1C
29 | 959 | COc1ccc(CNC(=O)C(C)n2ccc3cc(S(=O)(=O)N4CCCCC4)ccc32)c(OC)c1 (stereo unspecified)
30 | 870 | CCOc1ccc(NC(=O)Cn2nc3c(Oc4ccccc4C)nccn3c2=O)cc1
31 | 602 | NC1(Cc2ccc(Cl)cc2)CCN(c2ncnc3[nH]ccc23)CC1
32 | 696 | COc1ccc(-c2nnc(-c3cc(S(=O)(=O)NCc4cccnc4)ccc3Cl)o2)cc1
33 | 575 | CN1C(=O)[C@H]2CN(Cc3cn[nH]c3-c3ccc(F)cc3)C[C@H]2C1=O
34 | 566 | COC(=O)C1=C(CN2CCOCC2)NC(=O)NC1c1ccc(Cl)cc1 (stereo unspecified)

Row | Compound | RP-LC retention time [s]
35 | O=C(CCc1nc2ccccc2s1)N1[C@H]2CC[C@@H]1c1cnc(-c3ccccc3)nc1C2 | 902
36 | COc1ccc2c(c1)C1(CCN(S(=O)(=O)c3cccs3)C1)C(=O)N2 (stereo unspecified) | 790
